This is an account of results in patent publication US20260224524A1, “A PHARMACEUTICAL COMPOSITION TARGETING MUTANT P53 AND HER2” (DR DOZO LABORATORIES, priority 2023, published 2026).

In the assay the test system is Human Lung Cancer Cell Line A-549. The experiment in a line: Growth inhibition (% control growth, LC50, TGI, GI50) A-549. In kind it is cell-based. The note with it: Homo sapiens, A549, read-out: LC50, A-549; Molar drug concentrations calculated from graph. The protocol:
The therapeutic effect of SA1 (peak 5) and SA2 (peak 4) is evaluated against human lung cancer cell line A-549 by calculating the percentage growth inhibition, drug concentration of test compound needed to inhibit cell growth by 50% (GI50) values.
The therapeutic effect of SACC is evaluated against human lung cancer cell line A-549 by calculating the percentage growth inhibition, drug concentration of test compound needed to inhibit cell growth by 50% (GI50) values.

The LC50 is the concentration lethal to half of the exposed cells or organisms. Consider `COc1cccc2c1C(=O)c1c(O)c3c(c(O)c1C2=O)C[C@@](O)(C(=O)CO)C[C@@H]3O[C@H]1C[C@H](N)[C@H](O)[C@H](C)O1` [ADR, Adriamycin], for which the LC50 is 143 µM.
